The text below walks through data of PMC6988422 (Molecular Plant Pathology, 2019).

The assay has as its target T1, CdgL (c-di-GMP receptor interacting with LysR; YajQ homologue, Le2538) (Lysobacter enzymogenes, UniProt A0A0S2DCE3).
T1 sequence (A0A0S2DCE3 1-160): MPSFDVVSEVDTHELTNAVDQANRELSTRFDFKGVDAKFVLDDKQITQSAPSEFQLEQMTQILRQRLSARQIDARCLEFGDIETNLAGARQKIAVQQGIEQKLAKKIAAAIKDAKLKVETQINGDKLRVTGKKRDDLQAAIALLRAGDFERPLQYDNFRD
Briefly: microscale thermophoresis. Type of assay: binding.

Each structure is given as a SMILES string.

As usually defined, the Kd is the constant that tells how readily two partners part at equilibrium. Lower therefore signals higher affinity. With `Nc1nc2c(ncn2[C@@H]2O[C@@H]3CO[P@](=O)(O)O[C@H]4[C@@H](O)[C@H](n5cnc6c(=O)[nH]c(N)nc65)O[C@@H]4CO[P@](=O)(O)O[C@H]3[C@H]2O)c(=O)[nH]1` [c-di-GMP], binding was put at a Kd of 14.6 µM. That is a double-digit micromolar value.
